What all share (assay type): cell-based
Assay [1] concerns the target T1, Glutathione S-transferase P (Homo sapiens, UniProt P09211). Description: Inhibitory concentration against GSTP1-1 over-expressed in MCF-7piGST cells.
Target sequence in this assay (P09211 whole entry): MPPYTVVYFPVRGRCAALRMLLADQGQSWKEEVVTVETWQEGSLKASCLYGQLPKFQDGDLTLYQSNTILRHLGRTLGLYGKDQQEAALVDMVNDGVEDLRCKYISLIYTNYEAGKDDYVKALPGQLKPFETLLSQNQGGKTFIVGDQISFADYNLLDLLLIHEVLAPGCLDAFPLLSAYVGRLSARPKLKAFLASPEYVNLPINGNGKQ
Assay [2] deals with T1, Glutathione S-transferase P. Description: Inhibitory concentration against GSTP1-1 over-expressed in MCF7wt cells.
Target sequence in this assay (P09211 whole entry): as above
Assay [3] shares this target. Description: Ratio between MCF7wt to MCF-7piGST cells overexpressing in GSTP1-1.
Target sequence in this assay (P09211 2-210 limits assumed): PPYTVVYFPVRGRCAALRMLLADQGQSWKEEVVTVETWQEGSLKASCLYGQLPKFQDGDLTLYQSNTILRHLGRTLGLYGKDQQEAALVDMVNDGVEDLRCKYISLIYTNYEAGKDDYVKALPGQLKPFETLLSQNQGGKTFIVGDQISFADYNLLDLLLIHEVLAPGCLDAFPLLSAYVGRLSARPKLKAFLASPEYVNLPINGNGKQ

Broadly, the IC50 is the point on the concentration scale where inhibition reaches its midpoint. A higher IC50 goes with weaker potency in that assay.

For `C/C=C/C(=O)OCC1=CCCCC1=O`, the IC50 in assay [1] came out at 13.2 µM; in assay [2] it was 29.6 µM. Further, the Ratio in assay [3] came to 2.2.

As for `C/C=C/OC(=O)CC1=CCCCCC1=O`, the IC50 in assay [1] is 2.6 µM; in assay [2] it was 10.8 µM. The Ratio in assay [3] is 4.2.

These data come from ChEMBL document CHEMBL1141121, “Selective inhibition of MCF-7(piGST) breast tumors using glutathione transferase-derived 2-methylene-cycloalkenones” (J Med Chem, 2005).
